Data as given in patent US20250368649A1, “TETRAHYDROPYRIDOPYRIMIDINE PAN-KRAS INHIBITORS” (Mirati Therapeutics, Inc., priority 2022, published 2025).

What was measured:
KRas WT = KRas WT (Homo sapiens, UniProt P01116); assay: KRas binding assay (TR-FRET displacement), KRas WT; settings: TR-FRET displacement
KRas G12C = KRas G12C (Homo sapiens, UniProt P01116, G12C); type: binding; settings: TR-FRET displacement, read-out: Binding to KRas (IC50 nM) G12C
KRas G12S = KRas G12S (Homo sapiens, UniProt P01116, G12S); type: binding; settings: TR-FRET displacement, read-out: Binding to KRas (IC50 nM) G12S
MKN1 cells = assay: Inhibition of KRas-mediated phosphorylation of ERK (Cisbio HTRF pERK), MKN1 cells; type: cell-based; settings: Homo sapiens, MKN-1, 3 hr compound incubation
In short: (§1)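 Growth medium is RPMI with 10% FBS, and each well receives 6,000 cells on the first day of the protocol.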

PSN1 cells = assay: Inhibition of KRas-mediated phosphorylation of ERK (Cisbio HTRF pERK), PSN1 cells; type: cell-based; settings: Homo sapiens, PSN1, 3 h, 3 hr compound incubation
In short: as §1

ASPC1 cells = assay: Inhibition of KRas-mediated phosphorylation of ERK (Cisbio HTRF pERK), ASPC1 cells; type: cell-based; settings: Homo sapiens, ASPC1, 3 h, AsPC-1 cells; 3 hr compound incubation
H727 cells = assay: Inhibition of KRas-mediated phosphorylation of ERK (Cisbio HTRF pERK), H727 cells; type: cell-based; settings: Homo sapiens, NCI-H727, 3 h, 3 hr compound incubation
A549 cells = assay: Inhibition of KRas-mediated phosphorylation of ERK (Cisbio HTRF pERK), A549 cells; type: cell-based; settings: Homo sapiens, A549, 3 h, 3 hr compound incubation
H460 cells = assay: Inhibition of KRas-mediated phosphorylation of ERK (Cisbio HTRF pERK), H460 cells; type: cell-based; settings: Homo sapiens, NCI-H460, 3 h, 3 hr compound incubation
HCT116 cells = assay: Inhibition of KRas-mediated phosphorylation of ERK (Cisbio HTRF pERK), HCT116 cells; type: cell-based; settings: Homo sapiens, HCT-116, 3 h, 3 hr compound incubation
H358 cells = assay: Inhibition of KRas-mediated phosphorylation of ERK (Cisbio HTRF pERK), H358 cells; type: cell-based; settings: Homo sapiens, NCI-H358, 3 h, 3 hr compound incubation
H2009 cells = assay: Inhibition of KRas-mediated phosphorylation of ERK (Cisbio HTRF pERK), H2009 cells; type: cell-based; settings: Homo sapiens, NCI-H2009, 3 hr compound incubation
KRas G12D = KRas G12D (Homo sapiens, UniProt P01116, G12D); assay: biochemical; settings: Binding to KRas (IC50 nM) G12D, TR-FRET displacement, KRas G12D
KRas G12V = KRas G12V (Homo sapiens, UniProt P01116, G12V); assay: biochemical; settings: Binding to KRas (IC50 nM) G12V, TR-FRET displacement, KRas G12V
Chain of KRas G12V (P01116 1-169 isoform P01116-2 G12V): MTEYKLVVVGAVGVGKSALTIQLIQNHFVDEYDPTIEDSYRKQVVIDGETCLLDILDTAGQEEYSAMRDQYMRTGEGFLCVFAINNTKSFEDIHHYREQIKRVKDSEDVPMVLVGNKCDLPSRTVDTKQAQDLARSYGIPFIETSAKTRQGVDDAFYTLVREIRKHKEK

Chain of KRas G12S (P01116 1-169 isoform P01116-2 G12S): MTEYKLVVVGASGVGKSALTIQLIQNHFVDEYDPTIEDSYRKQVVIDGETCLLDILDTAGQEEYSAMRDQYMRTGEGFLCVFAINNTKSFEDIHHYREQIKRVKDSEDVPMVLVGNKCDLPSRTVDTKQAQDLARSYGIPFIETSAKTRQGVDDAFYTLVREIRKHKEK
Chain of KRas G12C (P01116 1-169 isoform P01116-2 G12C): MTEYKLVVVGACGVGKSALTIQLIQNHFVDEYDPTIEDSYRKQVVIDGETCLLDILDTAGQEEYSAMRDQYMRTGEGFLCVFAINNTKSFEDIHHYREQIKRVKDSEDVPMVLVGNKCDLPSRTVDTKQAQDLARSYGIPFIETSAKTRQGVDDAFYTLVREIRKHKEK
Chain of KRas G12D (P01116 1-169 isoform P01116-2 G12D): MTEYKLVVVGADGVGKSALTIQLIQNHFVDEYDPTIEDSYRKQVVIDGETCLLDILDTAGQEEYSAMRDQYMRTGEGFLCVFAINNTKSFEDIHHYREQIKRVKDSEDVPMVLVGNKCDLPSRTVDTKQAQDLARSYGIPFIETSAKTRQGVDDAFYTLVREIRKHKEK
Chain of KRas WT (P01116 1-169 isoform P01116-2): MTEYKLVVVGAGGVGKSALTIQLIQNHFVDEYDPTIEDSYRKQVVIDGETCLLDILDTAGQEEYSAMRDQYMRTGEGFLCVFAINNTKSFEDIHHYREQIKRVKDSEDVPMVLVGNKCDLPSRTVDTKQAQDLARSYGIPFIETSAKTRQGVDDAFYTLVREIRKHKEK

SMILES | IC50 (KRas WT) | IC50 (KRas G12C) | IC50 (KRas G12S) | IC50 (MKN1 cells) | IC50 (PSN1 cells) | IC50 (ASPC1 cells) | IC50 (H727 cells) | IC50 (A549 cells) | IC50 (H460 cells) | IC50 (HCT116 cells) | IC50 (H358 cells) | IC50 (H2009 cells) | IC50 (KRas G12D) | IC50 (KRas G12V)
C[C@@]1(O)COCCN(c2nc(OC[C@@]34CCCN3C[C@H](F)C4)nc3c2CCN(c2ccc(F)c4sc(N)c(C#N)c24)C3)C1 [Example 710, 2-amino-7-fluoro-4-(2-(((2R,7aS)-2-fluorotetrahydro-1H-pyrrolizin-7a(5H)-yl)methoxy)-4-((S)-6-hydroxy-6-methyl-1,4-oxazepan-4-yl)-5,8-dihydropyrido[3,4-d]pyrimidin-7(6H)-yl)benzo[b]thiophene-3-carbonitrile] | 52 nM | 48 nM | 60 nM | 75.9 nM | > 10000 nM | 626 nM | 1110 nM | 1210 nM | 813 nM | 1860 nM | 484 nM | 221 nM | 57 nM | 60 nM
C[C@@]1(O)CCCN(c2nc(OC[C@@]34CCCN3C[C@H](F)C4)nc3c2CCN(c2ccc(F)c4sc(N)c(C#N)c24)C3)C1 [Example 711, 2-amino-7-fluoro-4-(2-(((2R,7aS)-2-fluorotetrahydro-1H-pyrrolizin-7a(5H)-yl)methoxy)-4-((R)-3-hydroxy-3-methylpiperidin-1-yl)-5,8-dihydropyrido[3,4-d]pyrimidin-7(6H)-yl)benzo[b]thiophene-3-carbonitrile] | 10 nM | 19 nM | 13 nM | 830 nM | > 10000 nM | 1940 nM | 7410 nM | 4820 nM | 2520 nM | 7220 nM | 2680 nM | 424 nM | 17 nM | 21 nM
C=C1CN2CCCC2(COc2nc3c(c(N4CCCC5(CNS(=O)(=O)N5)C4)n2)CCN(c2cc(O)cc4ccc(F)c(CC)c24)C3)C1 (centres unmarked) [Example 712, 7-(7-(8-ethyl-7-fluoro-3-hydroxynaphthalen-1-yl)-2-((2-methylenetetrahydro-1H-pyrrolizin-7a(5H)-yl)methoxy)-5,6,7,8-tetrahydropyrido[3,4-d]pyrimidin-4-yl)-2-thia-1,3,7-triazaspiro[4.5]decane 2,2-dioxide] | 2 nM | 2 nM | < 2 nM | 1.4 nM | 806 nM | 70 nM | 421 nM | 216 nM | 141 nM | 240 nM | 30 nM | 19 nM | 3 nM | 3 nM
C=C1CN2CCCC2(COc2nc3c(c(N4CCCC5(CCO5)C4)n2)CCN(c2cc(O)cc4ccc(F)c(CC)c24)C3)C1 (centres unmarked) [Example 713, 5-ethyl-6-fluoro-4-(2-((2-methylenetetrahydro-1H-pyrrolizin-7a(5H)-yl)methoxy)-4-(1-oxa-6-azaspiro[3.5]nonan-6-yl)-5,8-dihydropyrido[3,4-d]pyrimidin-7(6H)-yl)naphthalen-2-ol] | < 2 nM | < 2 nM | < 2 nM | 10.5 nM | 1800 nM | 51 nM | 67 nM | 92 nM | 127 nM | 253 nM | 29 nM | 17 nM | 2 nM | < 2 nM
